Experimental data taken from patent US11739074B2, “Ras inhibitors” (Revolution Medicines, Inc., priority 2019, dated 2023).
Read-outs that look alike come from different tables or passages of the source.

Assays:
Assay type in all cases: cell-based
AsPC-1 (K-Ras G12D) [1] = experiment: Potency assay: pERK in AsPC-1 cells; conditions: Homo sapiens
AsPC-1 (K-Ras G12D) [2] = experiment: CellTiter-Glo cell viability assay, AsPC-1; conditions: Homo sapiens, ASPC1, 120 h
Summary of the method: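 Luminescence from CellTiter-Glo serves as the viability read-out after cells are treated with compound for 5 days. Each well's signal is divided by the DMSO average and multiplied by 100, and curves are fitted by four-parameter logistic regression.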

NCI-H358 (K-Ras G12C) = experiment: CellTiter-Glo cell viability assay, H358; conditions: Homo sapiens, NCI-H358, 120 h
Description: Determination of Cell Viability in RAS Mutant Cancer Cell Lines
Protocol: CellTiter-Glo® Cell Viability Assay
Note—The following protocol describes a procedure for monitoring cell viability of K-Ras mutant cancer cell lines in response to a compound of the invention. Other RAS isoforms may be employed, though the number of cells to be seeded will vary based on cell line used.
Test compounds (132.5 nL) were directly dispensed into the assay plates containing cells. […] On day 5, assay plates and their contents were equilibrated to room temperature for approximately 30 minutes. […] Luminescence was measured using the PerkinElmer Enspire. Data were normalized by the following: (Sample signal/Avg. DMSO)*100. The data were fit using a four-parameter logistic fit.

[3] = ASPC1, AsPC-1 cells, K-Ras G12D, read-out: pERK EC50 (AsPC-1 KRAS G12D)
[4] = AsPC-1, K-Ras G12D, 5-day treatment, read-out: AsPC-1 Cell Viability IC50
[5] = NCI-H358, K-Ras G12C, 5-day treatment, read-out: H358 Cell Viability IC50
[6] = ASPC1, read-out: pERK EC50 (AsPC-1 KRAS G12D)
[7] = read-out: AsPC-1 Cell Viability IC50, AsPC-1, K-Ras G12D, 5-day treatment
[8] = read-out: H358 Cell Viability IC50, NCI-H358, K-Ras G12C, 5-day treatment

## CCn1c(-c2cccnc2[C@H](C)OC)c2c3cc(ccc31)-c1cc(O)cc(c1)C[C@H](NC(=O)[C@H](C1CCCC1)N1CC[C@@]3(CCN(C(=O)[C@H]4CN4)C3)C1=O)C(=O)N1CCC[C@H](N1)C(=O)OCC(C)(C)C2 [Compound 174]
AsPC-1 (K-Ras G12D) [1]; [3]
  EC50: < 5 µM
AsPC-1 (K-Ras G12D) [2]; [4]
  IC50: 0.1 to 1 µM
NCI-H358 (K-Ras G12C); [5]
  IC50: < 0.01 µM

## CCn1c(-c2cccnc2[C@H](C)OC)c2c3cc(ccc31)-c1cc(O)cc(c1)C[C@H](NC(=O)[C@H](C(C)C)N(C)C(=O)c1ncc(NC(=O)[C@@H]3CN3)n1C)C(=O)N1CCC[C@H](N1)C(=O)OCC(C)(C)C2 [Compound 83]
AsPC-1 (K-Ras G12D) [1]; [3]
  EC50: < 5 µM
AsPC-1 (K-Ras G12D) [2]; [4]
  IC50: 1 to 10 µM
NCI-H358 (K-Ras G12C); [5]
  IC50: 0.01 to 0.1 µM

## CCn1c(-c2cccnc2[C@H](C)OC)c2c3cc(ccc31)-c1cc(O)cc(c1)C[C@H](NC(=O)[C@H](C(C)C)N1CCC3(CCN(C(=O)[C@H]4CN4)C3)C1=O)C(=O)N1CCC[C@H](N1)C(=O)OCC(C)(C)C2 (stereo partly drawn) [Compound 59]
AsPC-1 (K-Ras G12D) [1]; [3]
  EC50: < 5 µM
AsPC-1 (K-Ras G12D) [2]; [4]
  IC50: 0.1 to 1 µM
NCI-H358 (K-Ras G12C); [5]
  IC50: < 0.01 µM

## CCn1c(-c2cccnc2[C@H](C)OC)c2c3cc(ccc31)-c1csc(n1)C[C@H](NC(=O)[C@H](C(C)C)N(C)C(=O)N(C)CC1CN(C(=O)[C@@H]3CN3)C1)C(=O)N1CCC[C@H](N1)C(=O)OCC(C)(C)C2 [Compound 294]
AsPC-1 (K-Ras G12D) [1]; [3]
  EC50: < 5 µM
AsPC-1 (K-Ras G12D) [2]; [4]
  IC50: 1 to 10 µM
NCI-H358 (K-Ras G12C); [5]
  IC50: 0.1 to 1 µM

## CCn1c(-c2cc(C3CCN(C)CC3)cnc2[C@H](C)OC)c2c3cc(ccc31)-c1cc(O)cc(c1)C[C@H](NC(=O)[C@H](C1CCCC1)N(C)C(=O)CN(C)C(=O)[C@H]1CN1)C(=O)N1CCC[C@H](N1)C(=O)OCC(C)(C)C2 [Compound 230]
AsPC-1 (K-Ras G12D) [1]; [3]
  EC50: < 5 µM
AsPC-1 (K-Ras G12D) [2]; [4]
  IC50: 0.01 to 0.1 µM
NCI-H358 (K-Ras G12C); [5]
  IC50: 0.01 to 0.1 µM

## CCn1c(-c2cccnc2[C@H](C)OC)c2c3cc(ccc31)-c1cc(O)cc(c1)C[C@H](NC(=O)[C@H](C(C)C)N(C)C(=O)CN(C)C(=O)[C@H]1N[C@H]1C1CCC1)C(=O)N1CCC[C@H](N1)C(=O)OCC(C)(C)C2 [Compound 288]
AsPC-1 (K-Ras G12D) [1]; [6]
  EC50: < 5 µM
AsPC-1 (K-Ras G12D) [2]; [7]
  IC50: 0.1 to 1 µM
NCI-H358 (K-Ras G12C); [8]
  IC50: 0.01 to 0.1 µM

## CCn1c(-c2cccnc2[C@H](C)OC)c2c3cc(ccc31)-c1cc(O)cc(c1)C[C@H](NC(=O)[C@H](C(C)C)N(C)C(=O)[C@H]1CCN(S(=O)(=O)[C@@H]3CN3C)C1)C(=O)N1CCC[C@H](N1)C(=O)OCC(C)(C)C2 (single isomer, unassigned) [Compound 56]
AsPC-1 (K-Ras G12D) [1]; [3]
  EC50: < 5 µM
AsPC-1 (K-Ras G12D) [2]; [4]
  IC50: 1 to 10 µM
NCI-H358 (K-Ras G12C); [5]
  IC50: 0.1 to 1 µM

## CCn1c(-c2cccnc2[C@H](C)OC)c2c3cc(ccc31)-c1cc(O)cc(c1)C[C@H](NC(=O)[C@H](C(C)C)N(C)C(=O)CN(C)C(=O)[C@@H]1CN1CCCOC)C(=O)N1CCC[C@H](N1)C(=O)OCC(C)(C)C2 (stereo partly drawn) [Compound 137]
AsPC-1 (K-Ras G12D) [1]; [6]
  EC50: < 5 µM
AsPC-1 (K-Ras G12D) [2]; [7]
  IC50: 0.1 to 1 µM
NCI-H358 (K-Ras G12C); [8]
  IC50: < 0.01 µM

## CCn1c(-c2cccnc2[C@H](C)OC)c2c3cc(ccc31)-c1csc(n1)C[C@H](NC(=O)[C@H](C(C)C)N(C)C(=O)N(C)CCN(C)C(=O)[C@H]1CN1)C(=O)N1CCC[C@H](N1)C(=O)OCC(C)(C)C2 [Compound 216]
AsPC-1 (K-Ras G12D) [1]; [3]
  EC50: < 5 µM
AsPC-1 (K-Ras G12D) [2]; [4]
  IC50: 0.1 to 1 µM
NCI-H358 (K-Ras G12C); [5]
  IC50: 0.01 to 0.1 µM

## CCn1c(-c2cccnc2[C@H](C)OC)c2c3cc(ccc31)-c1cc(O)cc(c1)C[C@H](NC(=O)[C@H](C(C)C)N(C)C(=O)CN(C)C(=O)[C@H]1CN1)C(=O)N1CCC[C@H](N1)C(=O)OCC(C)(C)C2 [Compound 42A]
AsPC-1 (K-Ras G12D) [1]; [6]
  EC50: < 5 µM
AsPC-1 (K-Ras G12D) [2]; [7]
  IC50: 0.1 to 1 µM
NCI-H358 (K-Ras G12C); [8]
  IC50: < 0.01 µM

## CCn1c(-c2cccnc2[C@H](C)OC)c2c3cc(ccc31)-c1csc(n1)C[C@H](NC(=O)[C@H](C(C)C)N(C)C(=O)N(C)[C@H]1CCN(C(=O)[C@H]3CN3)C1)C(=O)N1CCC[C@H](N1)C(=O)OCC(C)(C)C2 [Compound 296]
AsPC-1 (K-Ras G12D) [1]; [3]
  EC50: < 5 µM
AsPC-1 (K-Ras G12D) [2]; [4]
  IC50: 1 to 10 µM
NCI-H358 (K-Ras G12C); [5]
  IC50: 0.01 to 0.1 µM

## CCn1c(-c2cccnc2[C@H](C)OC)c2c3cc(ccc31)-c1cc(O)cc(c1)C[C@H](NC(=O)[C@H](C1CCCC1)N(C)C(=O)CN(C)C(=O)[C@@H]1N[C@@H]1C1(OC)CC1)C(=O)N1CCC[C@H](N1)C(=O)OCC(C)(C)C2 (single isomer, unassigned) [Compound 323]
AsPC-1 (K-Ras G12D) [1]; [3]
  EC50: < 5 µM
AsPC-1 (K-Ras G12D) [2]; [4]
  IC50: 0.1 to 1 µM
NCI-H358 (K-Ras G12C); [5]
  IC50: 0.01 to 0.1 µM
